Assay: Tolerability after i.p. injection
Type: in vivo
Conditions: i.p. injection at 100 mg/kg animal body
From the text: Compounds of formula I are well tolerated at dosages required for use in accordance with the present invention.

SMILES: C[C@@H](O)[C@@H]1NC(=O)[C@H](CCCCN)NC(=O)[C@@H](Cc2c[nH]c3ccccc23)NC(=O)[C@H](Cc2ccccc2)NC(=O)[C@@H](NC(=O)[C@H](N)Cc2ccccc2)CSSC[C@@H](C(=O)N[C@H](CO)[C@@H](C)O)NC1=O [octreotide]
- increase in GOT: no increase in GOT
- lethality: no increase in GOT or any lethality

— patent publication EP0671413A1, “Somatostatin analogs for preventing NSAID-induced ulcers” (SANDOZ LTD, priority 1994, dated 1995)
